These results are taken from PubChem BioAssay (NCI).

Holding throughout (test): NCI tumour cell line growth inhibition, 48 h
Assay [1] deals with A549 NSCLC.
Assay [2] deals with CCRF-CEM leukemia.
In assay [3] the test system is HCT-116 colon.
For assay [4], the system named is LOX IMVI melanoma.
Assay [5] relates to MALME-3M melanoma.
The test system of assay [6] is NCI-H23 lung.
The test system of assay [7] is RXF 393 renal.
Assay [8] concerns SF-295 CNS.
In assay [9] the test system is SR leukemia.
Assay [10] has as its system U251 CNS.

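Exposure lasted 48 hours, with cells grown in 96-well plates and compounds tested at five concentrations. GI50 = concentration required for 50% inhibition of growth. The concentration for full growth arrest is given as TGI.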

For `O=C1C=CC(=O)N1c1ccc2c(c1)Cc1cc(NC(=O)C(F)(F)F)ccc1-2`, the TGI turned out to be 34.5 µM in [1]; 16.9 µM in assay [2]; 22.6 µM in assay [3]; 32.7 µM in assay [4]; 40.1 µM in [5]; 32.2 µM in [6]. The TGI was 23.7 µM in assay [7], above 100 µM in [8], 6.44 µM in [9] and 34 µM in assay [10].
On to `CCCN1C(=O)/C(=C/c2ccc(O)cc2)SC1=Nc1ccccc1`, for which the GI50 in [1] is 23.9 µM; in assay [2], above 100 µM; in [3], 17.5 µM; in [4], 14.7 µM; in assay [6], 34.1 µM; in assay [7] it was 23.2 µM. Besides, the GI50 was 27.9 µM in assay [8], 14 µM in assay [9] and 15.6 µM in [10]. Also, the TGI is 58.2 µM in assay [1]; above 100 µM in assay [2]; 31.3 µM in assay [3]; 29.3 µM in assay [4]; 93 µM in assay [6]; 51.4 µM in [7]. The TGI in [8] is 68.7 µM; in assay [9] it was above 100 µM; in assay [10] it was 29 µM.
Consider `N#C/C(=C\c1ccc(Cl)cc1)n1nnc2cc(F)c(F)cc21`, for which the GI50 in assay [1] is 2.7 µM; in assay [2] it was 2.01 µM; in [3], 1.77 µM; in assay [4] it was 1.57 µM; in [5] it was 2060 nM; in assay [6], 1.73 µM. Moreover, the GI50 in [7] was 1.46 µM; in assay [8] it was 2.26 µM; in [9], 1.33 µM; in [10], 1.62 µM. Further, the TGI in [1] is 21.5 µM; in [2], above 100 µM; in [3], 3.45 µM; in [4] it was 2.99 µM; in [5] it was 5.34 µM; in [6], 3.71 µM. For the same compound, the TGI in [7] is 3.11 µM; in [8], 5.53 µM; in assay [9], above 100 µM; in assay [10], 3.06 µM.
Take `Cc1cc(S(=O)(=O)/N=C(\N)n2nc(C)c(C)c2C)c(SCc2ccccc2)cc1Cl`: the GI50 in assay [1] was 14 µM; in assay [2], 4.49 µM; in assay [3], 38.5 µM; in [4], above 100 µM; in [5] it was above 100000 nM; in assay [6] it was 7.04 µM. Further, the GI50 was 58.6 µM in assay [7], 7.99 µM in assay [8], above 100 µM in assay [9] and 7.47 µM in assay [10]. For the same compound, the TGI in assay [1], in assay [2], in assay [3], in assay [4], in assay [5] and in [6] was above 100 µM in each case. Further, the TGI in assay [7], in [8], in assay [9] and in [10] was above 100 µM each time.
For the compound `O=C(c1cccs1)c1c(C(F)(F)F)n([O-])c2cc(C(F)(F)F)ccc2[n+]1=O`, the GI50 in assay [1] was 0.242 µM; in [2], 0.12 µM; in assay [3], 0.0575 µM; in assay [4], 0.0714 µM; in [5], 347 nM; in assay [6], 0.348 µM. For the same compound, the GI50 was 0.184 µM in assay [7], 0.322 µM in assay [8], 0.0176 µM in [9] and 0.153 µM in [10]. Further, the TGI in assay [1] turned out to be 0.69 µM; in [2], 0.361 µM; in assay [3] it was 0.176 µM; in assay [4], 0.17 µM; in assay [5] it was 0.772 µM; in assay [6] it was 1.27 µM. Also, the TGI in assay [7] came out at 0.351 µM; in [8], 0.889 µM; in assay [9] it was 0.0833 µM; in assay [10] it was 0.288 µM.
`OCC1OC(O)C(N=Cc2ccc3c(c2)OCO3)C(O)C1O` (stereo not drawn): the TGI in assay [1] is above 100 µM; in [2] it was above 40.1 µM; in assay [3], above 100 µM; in [4], above 100 µM; in assay [5], above 100 µM; in assay [6], above 100 µM. The TGI in [7], in assay [8], in assay [9] and in assay [10] was above 100 µM throughout.
Take `C[C@]12CC[C@H]3[C@@H](CC=C4C[C@@H](O)CC[C@@]43C)[C@@H]1C/C(=C\c1cccc(OCCCn3ccnc3)c1)[C@@H]2O`: the GI50 in assay [1] is 12.9 µM; in [2] it was 13 µM; in assay [3], 5.99 µM; in [4] it was 15.7 µM; in assay [5] it was 15700 nM; in [6], 13 µM. Besides, the GI50 in assay [7] was 4.7 µM; in [8], 6.8 µM; in [9], 6.67 µM; in assay [10], 11.8 µM. Moreover, the TGI in assay [1] was 28.5 µM; in assay [2], 68.7 µM; in assay [3] it was 21.1 µM; in assay [4] it was 39.6 µM; in [5], 35.9 µM; in [6], 30.1 µM. Also, the TGI in assay [7] is 20.8 µM; in assay [8], 26.4 µM; in assay [9] it was 47.7 µM; in assay [10] it was 24.7 µM.
As to `O=C(O/N=C1/CCC/C1=C\c1ccccc1)c1ccccc1`, the TGI in assay [1], in assay [2], in [3], in assay [4], in assay [5] and in [6] was above 100 µM in each case. Moreover, the TGI in assay [7], in assay [8], in assay [9] and in [10] was above 100 µM throughout.
